Reference: PMC2064136 (The Journal of Cell Biology, 2007)

How the values were obtained:
[1] = tested on: mouse liver mitochondria (MLM); format: biochemical
[2] = tested on: Bak; conditions: ref Willis et al., 2005; cited from earlier work
[3] = tested on: Xenopus egg mitochondria (XEM); format: biochemical, Xenopus laevis; conditions: for concentration that protected XEM against at least 20 nM tBid: titrations in XEM supplemented with tBid (Fig. 5 A)
[4] = full-length Bcl-xL, tBid 2 h (Fig. 3)

Row | Substance | concentration protecting MLM from tBid [1, 4] | binding to Bak [2] | concentration protecting XEM from tBid [3, 4] | concentration that protected XEM against at least 20 nM tBid [3] | loss of activity relative to full-length Bcl-xL in protecting MLM from tBid ([1]; MLM, tBid (Fig. 3 B)) | block of the permeabilizing effect of Bad, Bmf and Hrk BH3 peptides on MLM ([1]; MLM incubated as for XEM with mBad, Bmf, Hrk BH3 peptides (Fig. 4 B)) | relative protection of XEM from different BH3 peptides ([3]; Fig. S4)
1 | Bcl-xL: recombinant full-length human Bcl-xL | ~20 nM | bind Bak | ~20 nM | 30 nM | – | – | –
2 | Bcl-xLΔC24: C-terminally truncated form of human Bcl-xL | – | – | – | – | 10–30 times | – | –
3 | Mcl-1: recombinant mouse Mcl-1ΔN151ΔC11 with five additional N-terminal residues (GPLGS) | – | bind Bak | – | 300 nM | – | also blocked | protected XEM better from the Bad than from the Bim or Puma peptides
